Test results from patent publication US9925185B1, “Treatment and prevention methods for mammalian neurosensory hair cells loss” (Creighton University, priority 2014, dated 2018).

What was measured:
[1] = test system: N2a cells
Method: (§1) Cytotoxicity effects for each drug were measured by the colorimetric MTT assay. The MTT assay includes a yellow tetrazole that is reduced to purple formazan in living cells. In this implementation, solubilization solution (e.g., dimethyl sulfoxide, an acidified ethanol solution, or a solution of the detergent sodium dodecyl sulfate in diluted hydrochloric acid) was added to dissolve the insoluble purple formazan product into a colored solution. The absorbance of this colored solution was quantified by measuring at a certain wavelength (e.g, between 500 and 600 nm) by a spectrophotometer where the degree of light absorption depends on the solvent. The MTT assay can provide a useful measure of cell viability and proliferation. To quantify cytotoxicity, 10 μl of 10 mg/ml of MTT reagent was added to a well containing cells, and the cells were incubated at 37° C. for 4 hours. The supernatant was aspirated and the purple-colored formazan product was dissolved in 100 μl of DMSO. Absorbance was measured at 590 nm. The average of triplicate wells was taken for each concentration of the drug, and cell viability was calculated by substituting the corresponding mean absorbance values using the following equation:
(§2) A T-test (*=p<0.01; 0 μM=untreated cells) was used to compare toxicity between the two drugs at different concentrations.

[2] = test system: cisplatin-treated HEI-OC1 cells; assay: Protective potential of quinoxaline pre-treatment on cisplatin-treated HEI-OC1 cells; assay type: cell-based
Method: HEI-OC1 cells were plated at a density of 20,000 cells per well overnight, followed by a pre-treatment with varying concentrations of quinoxaline (i.e., 200 nM, 1 μM, 10 μM, and 50 μM) for one hour.

[3] = test system: cisplatin-treated N2a cells; details: 1 μM quinoxaline pre-treatment, then 100 μM cisplatin
Method: as §1, with “equation: […]” for “equation:”
(§3) Cells were plated at a density of 20,000 cells per well overnight, followed by a pretreatment with varying concentrations of quinoxaline for one hour. […]

[4] = test system: cochlear hair cells (organ of Corti); assay: In vivo chemoprotective and proliferative effects on cochlear hair cells of cisplatin-treated mice; details: C57BL/6 mice
Method: The inner ear neurosensory epithelia, the organ of Corti (OC), were analyzed. FIGS. 4A through 4D illustrate the outer hair cells (OHCs) and inner hair cells (IHCs) in the middle turn of the cochlea of adult C57BL/6 mice submitted to different treatments. The control group was the untreated cochlea, illustrated in FIG. 4A.

[5] = test system: HEI-OC1 cells; assay type: cell-based; details: 24 hours
Method: As previously done for HT 1080 and N2a cells, the potential cytotoxicity of quinoxaline was measured in HEI-OC1 cells. HEI-OC1 cells were treated with a crescent dosage of quinoxaline (i.e., 200 nM, 500 nM, 1 μM, 10 μM, 50 μM) for 24 hours and submitted to MIT analyses.

[6] = test system: HEI-OC1 cells; assay: CYQUANT cell proliferation assay (DNA content) in HEI-OC1 cells; assay type: cell-based; details: 200 nM, 500 nM, 1 μM, 5 μM for 24 hours, t-test p<0.001, most noticeable at 200 and 500 nM
Method: In an implementation, HEI-OC1 cells were treated with different concentrations (e.g., 200 nM, 500 nM, 1 μM, and 5 μM) of quinoxaline for 24-hours. Untreated cells were used as control groups. To quantify potential changes in cell proliferation following the treatment, DNA isolated from treated and untreated cells was submitted to CYQUANT analysis (Invitrogen, Grand Island, N.Y.), following the manufacturer's instructions for cell proliferation assay. The CYQUANT assay is based on the principle that cell number is proportional to the measurement of cellular DNA content. However, the use of the CYQUANT assay is offered by way of example only and is not meant to be restrictive of the present disclosure. In other embodiments, other types of cell proliferation assays can be used to quantify potential changes in cell proliferation. FIG. 3B illustrates the DNA content of untreated cells and quinoxaline-treated cells. […] Quinoxaline's effect in cell proliferation was most noticeable when cells were treated with lower concentrations (i.e., 200 nm and 500 nM) of the drug.

[7] = test system: cisplatin-treated HT 1080 cells; assay: Protective potential of quinoxaline pre-treatment on cisplatin-treated HT 1080 cells; assay type: cell-based, human; details: quinoxaline pre-treatment 1 hour, then 100 μM cisplatin 24 hours
Method: as §1, with “equation: […]” for “equation:”
as §3

[8] = test system: HT 1080 cells
Method: as §1, §2

| SMILES | cell response compared with HT 1080 cells [1] | survival rate ([2]; 200 nM quinoxaline 1 hour pre-treatment + 200 μM cisplatin 24 hours) [%] | survival rate ([2]; 1 μM quinoxaline 1 hour pre-treatment + 200 μM cisplatin 24 hours) [%] | cell survival ([2]; pre-treated with higher than 10 μM quinoxaline + 200 μM cisplatin) | cell proliferation [3] | cell proliferation (numbers of supernumerary cells) ([4]; low doses (e.g., 15 mg)) | supernumerary myosin VIIa-positive cells at the IHC region ([4]; quinoxaline pre-treated ears) | myosin VIIa-positive hair cells in middle turn of cochlea ([4]; quinoxaline pre-treatment + cisplatin 20 mg/Kg, versus cisplatin only) | cell death ([5]; HEI-OC1, dosages higher than 10 μM) | cell proliferation ([5]; HEI-OC1, lower doses of quinoxaline) | sensitivity of HEI-OC1 cells ([5]; quinoxaline concentrations higher than 5 μM) | DNA content (cell proliferation) versus untreated cells [6] | overall cytotoxicity versus 100 μM cisplatin only [7] | cytotoxicity [8] | effect on cell proliferation (total number of cells) ([8]; HT 1080 cells, 0.5 μM) |
| --- | --- | --- | --- | --- | --- | --- | --- | --- | --- | --- | --- | --- | --- | --- | --- |
| N.N.[Cl][Pt][Cl] [cisplatin, reference compound] | No statistically significant differences |  |  |  |  |  |  |  |  |  |  |  |  |  |  |
| c1ccc2nccnc2c1 [quinoxaline] | No statistically significant differences | 25 | 40 | No statistically significant differences in cell survival | promoted their proliferation | increase in the numbers of supernumerary cells | supernumerary myosin VIla-positive cells were observed | myosin VIla-positive hair cells were still observed | smaller, but quantifiable cell death | increase in cell proliferation | particularly sensitive | statistically significant increase in DNA content | significantly reduced overall cytotoxicity | consistently lower than that of cisplatin | modest, but quantifiable, positive effect on cell proliferation |
